# Compound: Cc1ccc(Nc2nccc(N(C)c3ccc4c(C)n(C)nc4c3)n2)cc1S(N)(=O)=O [Pazopanib] + COc1cc2c(Oc3ccc(NC(=O)C4(C(=O)Nc5ccc(F)cc5)CC4)cc3F)ccnc2cc1OCCCN1CCOCC1 [Foretinib] (partner 0.25 µM)
# Assay: relative viability (nuclei count vs DMSO), 5 days (fraction); higher = more cells survive
# Settings: first compound 1 µM
# In short: (§1)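 A single step with final 0.05% Triton X-100, 1% formaldehyde and 1 ug/ml Hoechst fixed the cells and stained nuclei 5 days after treatment. Lung cancer cell lines in 1536-well plates had been treated by pin tool the day after seeding with one drug alone or a fixed anchor-drug dose plus five library-drug doses (not always all listed) in √10 steps, and nuclei were counted on 4× images. Relative viability is the ratio of nuclei in treated wells to nuclei in vehicle wells, taken as the median of duplicate plates.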
row,Cell Line,relative viability
1,NCI-H1993,0.817
2,NCI-H2347,0.843
3,PC-14,1
4,LCLC-103H,0.894
5,NCI-H596,0.84
6,NCI-H2126,1.06
7,EMC-BAC-2,1.06
8,NCI-H2085,1.11
9,Calu-6,0.803
10,HCC-366,0.938
11,NCI-H1666,1.1
12,NCI-H647,0.854
13,LK-2,1.01
14,NCI-H2087,0.796
15,NCI-H1395,0.968
16,H3255,0.939

row,Cell Line,relative viability
1,COR-L23,0.989
2,COR-L 105,1.18
3,IA-LM,1.02
4,LOU-NH91,0.948
5,ChaGo-K-1,0.946
6,NCI-H358,0.918
7,NCI-H3122,0.996
8,HOP-62,0.976
9,A549,0.913
10,SW 900,0.97
11,NCI-H727,0.913
12,NCI-H1299,1.01
13,NCI-H650,0.818
14,NCI-H1563,1.08
15,ABC-1,1.04
16,NCI-H661,0.995

# Compound: Cc1ccc(C(=O)Nc2ccc(CN3CCN(C)CC3)c(C(F)(F)F)c2)cc1C#Cc1cnc2cccnn12 [Ponatinib] + CC1(C)CCC(c2ccc(Cl)cc2)=C(CN2CCN(c3ccc(C(=O)NS(=O)(=O)c4ccc(N[C@H](CCN5CCOCC5)CSc5ccccc5)c(S(=O)(=O)C(F)(F)F)c4)cc3)CC2)C1 [Navitoclax] (partner 0.5 µM)
# Assay: as above
# Settings: first compound 0.002 µM
# In short: as §1
row,Cell Line,relative viability
1,NCI-H838,1.1
2,NCI-H1650,1.1
3,EBC-1,0.504
4,NCI-H1703,0.856
5,NCI-H1993,0.881
6,NCI-H2347,0.684
7,PC-14,0.927
8,NCI-H596,0.845
9,NCI-H2126,0.823
10,EMC-BAC-2,1.06
11,NCI-H2085,1.1
12,Calu-6,0.828
13,HCC-366,1.03
14,NCI-H1666,0.94
15,NCI-H647,1.04
16,LK-2,0.619
17,NCI-H2087,0.825
18,H3255,0.477
19,COR-L23,0.977
20,COR-L 105,0.832
21,IA-LM,0.658
22,LOU-NH91,0.679
23,ChaGo-K-1,0.914
24,NCI-H3122,1.04
25,HOP-62,0.943
26,HCC-44,0.941
27,A549,1.17
28,NCI-H727,0.612
29,NCI-H1299,1.05
30,NCI-H1792,0.609

# Same assay, conditions: first compound 0.006325 µM
row,Cell Line,relative viability
1,NCI-H838,1.21
2,NCI-H1650,1.22
3,EBC-1,0.534
4,NCI-H1703,0.943
5,NCI-H1993,1.07
6,NCI-H2347,0.834
7,PC-14,1
8,NCI-H596,0.969
9,NCI-H2126,0.871
10,EMC-BAC-2,1.07
11,NCI-H2085,1.16
12,Calu-6,0.682
13,HCC-366,1.02
14,NCI-H1666,1.15
15,NCI-H647,1.07
16,LK-2,0.825

row,Cell Line,relative viability
1,NCI-H2087,0.771
2,NCI-H1395,1.15
3,H3255,0.501
4,COR-L23,0.912
5,COR-L 105,0.8
6,IA-LM,0.62
7,LOU-NH91,0.753
8,ChaGo-K-1,1.18
9,NCI-H3122,1.03
10,HOP-62,0.984
11,HCC-44,0.98
12,A549,1.11
13,NCI-H727,0.53
14,NCI-H1299,1.03
15,NCI-H1792,0.648

# Same assay, conditions: first compound 0.06325 µM
row,Cell Line,relative viability
1,NCI-H838,1.19
2,NCI-H1650,1.49
3,EBC-1,0.358
4,NCI-H1703,0.278
5,NCI-H1993,1.25
6,NCI-H2347,0.899
7,PC-14,1.14
8,NCI-H596,1.03
9,NCI-H2126,0.963
10,EMC-BAC-2,1.19
11,NCI-H2085,1.28
12,Calu-6,0.941
13,HCC-366,1.14
14,NCI-H1666,1.18
15,NCI-H647,1.21
16,LK-2,1.04

row,Cell Line,relative viability
1,NCI-H2087,0.864
2,NCI-H1395,1.09
3,H3255,0.725
4,COR-L23,1
5,COR-L 105,0.832
6,IA-LM,0.749
7,LOU-NH91,0.779
8,ChaGo-K-1,1.05
9,NCI-H3122,1.04
10,HOP-62,1.01
11,HCC-44,1.16
12,A549,1.37
13,NCI-H727,0.472
14,NCI-H1299,1.1
15,NCI-H1792,0.582

# Same assay, conditions: first compound 0.2 µM
row,Cell Line,relative viability
1,NCI-H838,0.979
2,NCI-H1650,0.999
3,EBC-1,0.304
4,NCI-H1703,0.205
5,NCI-H1993,0.943
6,NCI-H2347,0.719
7,PC-14,0.919
8,NCI-H596,0.733
9,NCI-H2126,0.848
10,EMC-BAC-2,1.11
11,NCI-H2085,1.16
12,Calu-6,0.717
13,HCC-366,0.966
14,NCI-H1666,0.979
15,NCI-H647,0.935
16,LK-2,0.64

row,Cell Line,relative viability
1,NCI-H2087,0.995
2,NCI-H1395,0.977
3,H3255,0.479
4,COR-L23,0.901
5,COR-L 105,0.955
6,IA-LM,0.684
7,LOU-NH91,0.655
8,ChaGo-K-1,0.954
9,NCI-H3122,1.01
10,HOP-62,0.817
11,HCC-44,0.93
12,A549,1.16
13,NCI-H727,0.523
14,NCI-H1299,1.01
15,NCI-H1792,0.624

# Compound: Cc1ccc(Nc2nccc(N(C)c3ccc4c(C)n(C)nc4c3)n2)cc1S(N)(=O)=O [Pazopanib] + CC1(C)CCC(c2ccc(Cl)cc2)=C(CN2CCN(c3ccc(C(=O)NS(=O)(=O)c4ccc(N[C@H](CCN5CCOCC5)CSc5ccccc5)c(S(=O)(=O)C(F)(F)F)c4)cc3)CC2)C1 [Navitoclax] (partner 0.5 µM)
# Assay: as above
# Settings: first compound 0.01 µM
# In short: as §1
row,Cell Line,relative viability
1,NCI-H838,1.1
2,NCI-H1650,1.28
3,EBC-1,0.364
4,NCI-H1703,0.865
5,NCI-H1993,0.734
6,NCI-H2347,0.722
7,PC-14,1.06
8,NCI-H596,0.843
9,NCI-H2126,0.798
10,EMC-BAC-2,1.04
11,NCI-H2085,1.18
12,Calu-6,0.87
13,HCC-366,1.02
14,NCI-H1666,1.06
15,NCI-H647,1.14
16,LK-2,0.67
17,NCI-H2087,1.03
18,NCI-H1395,1.15
19,H3255,0.488
20,COR-L23,0.971
21,COR-L 105,0.891
22,IA-LM,0.815
23,LOU-NH91,0.718
24,ChaGo-K-1,0.935
25,NCI-H3122,1.09
26,HOP-62,1.13
27,HCC-44,0.87
28,A549,1.16
29,NCI-H727,0.506
30,NCI-H1299,1.04

# Same assay, conditions: first compound 0.03162 µM
row,Cell Line,relative viability
1,NCI-H838,1.22
2,NCI-H1650,1.26
3,EBC-1,0.436
4,NCI-H1703,0.925
5,NCI-H1993,0.735
6,NCI-H2347,0.805
7,PC-14,1.06
8,NCI-H596,0.997
9,NCI-H2126,0.779
10,EMC-BAC-2,1.21
11,NCI-H2085,1.22
12,Calu-6,0.863
13,HCC-366,1.11
14,NCI-H1666,0.975
15,NCI-H647,1.08
16,LK-2,0.925

row,Cell Line,relative viability
1,NCI-H2087,1.04
2,NCI-H1395,1.25
3,H3255,0.523
4,COR-L23,1.08
5,COR-L 105,0.698
6,IA-LM,0.782
7,LOU-NH91,0.701
8,ChaGo-K-1,1.07
9,NCI-H3122,1.05
10,HOP-62,1.08
11,HCC-44,0.896
12,A549,1.18
13,NCI-H727,0.417
14,NCI-H1299,1.03
15,NCI-H1792,0.62

# Same assay, conditions: first compound 0.1 µM
row,Cell Line,relative viability
1,NCI-H838,1.21
2,NCI-H1650,1.44
3,EBC-1,0.454
4,NCI-H1703,0.344
5,NCI-H1993,0.988
6,NCI-H2347,0.836
7,PC-14,1.09
8,NCI-H596,0.978
9,NCI-H2126,0.848
10,EMC-BAC-2,1.15
11,NCI-H2085,1.26
12,Calu-6,0.848
13,HCC-366,1.14
14,NCI-H1666,0.926
15,NCI-H647,1.21
16,LK-2,0.863

row,Cell Line,relative viability
1,NCI-H2087,1.1
2,NCI-H1395,1.24
3,H3255,0.548
4,COR-L23,0.985
5,COR-L 105,0.787
6,IA-LM,0.778
7,LOU-NH91,0.732
8,ChaGo-K-1,0.997
9,NCI-H3122,1.05
10,HOP-62,1.01
11,HCC-44,1
12,A549,1.21
13,NCI-H727,0.656
14,NCI-H1299,1.03
15,NCI-H1792,0.58

# Same assay, conditions: first compound 0.3162 µM
row,Cell Line,relative viability
1,NCI-H838,1.24
2,NCI-H1650,1.18
3,EBC-1,0.442
4,NCI-H1703,0.256
5,NCI-H1993,1.01
6,NCI-H2347,0.842
7,PC-14,0.954
8,NCI-H596,0.924
9,NCI-H2126,0.817
10,EMC-BAC-2,1.15
11,NCI-H2085,1.15
12,Calu-6,0.768
13,HCC-366,0.984
14,NCI-H1666,1.22
15,NCI-H647,1.17
16,LK-2,0.788

row,Cell Line,relative viability
1,NCI-H2087,1.01
2,NCI-H1395,1.33
3,H3255,0.536
4,COR-L23,0.978
5,COR-L 105,0.732
6,IA-LM,0.792
7,LOU-NH91,0.843
8,ChaGo-K-1,0.792
9,NCI-H3122,1.08
10,HOP-62,1.03
11,HCC-44,0.82
12,A549,1.21
13,NCI-H727,0.513
14,NCI-H1299,1.1
15,NCI-H1792,0.627

# Same assay, conditions: first compound 1 µM
row,Cell Line,relative viability
1,NCI-H838,1.26
2,NCI-H1650,1.04
3,EBC-1,0.427
4,NCI-H1703,0.287
5,NCI-H1993,0.889
6,NCI-H2347,0.858
7,PC-14,0.948
8,NCI-H596,0.837
9,NCI-H2126,0.881
10,EMC-BAC-2,1.15
11,NCI-H2085,1.31
12,Calu-6,0.842
13,HCC-366,1.19
14,NCI-H1666,1.01
15,NCI-H647,1.16
16,LK-2,0.821

row,Cell Line,relative viability
1,NCI-H2087,0.8
2,NCI-H1395,1.28
3,H3255,0.572
4,COR-L23,1.06
5,COR-L 105,0.773
6,IA-LM,0.625
7,LOU-NH91,0.766
8,ChaGo-K-1,1.06
9,NCI-H3122,1.13
10,HOP-62,0.944
11,HCC-44,0.984
12,A549,1.26
13,NCI-H727,0.572
14,NCI-H1299,1.02
15,NCI-H1792,0.569

# Reference: the supplement of paper PMC10307832
